Experiments:
in vitro = settings: both, microsomes, pH 7.4
Description: Human and Rat Liver Microsomal Stability Assay
The metabolic stability of the compounds of the Formula (I) was measured by determination of the rate of compound disappearance when incubated in the presence of both human and rat liver microsomes. Liver microsomes are prepared from the endoplasmic reticulum of hepatocytes and are the primary source of the most important enzymes (cytochrome P450) involved in drug metabolism. Study of drug stability in the presence of liver microsomes is accepted as a valuable model permitting rapid prediction of in vivo drug stability.
Human and rat liver microsomes were obtained from a commercial source. Test compounds (3 μM) were incubated with pooled liver microsomes (male and female). Samples were incubated for a 45 minute period and removed at 5 time points and test compounds were analysed by LC-MS/MS.
The final incubation volume was 25 μL. A control incubation was included for each compound tested, where 0.1 M phosphate buffer pH 7.4 was added instead of NADPH. The control compounds testosterone and 7-hydroxycoumarin were included in each experiment and all incubations were performed singularly for each compound.
Each compound was incubated for 0, 5, 15, 30, and 45 minutes. The control (minus NADPH) was incubated for 45 minutes only. The reactions were stopped by the addition of 50 μL methanol containing internal standard at the appropriate time points. The incubation plates were centrifuged at 2500 rpm for 20 minutes at 4° C. to precipitate the protein.
Following protein precipitation, the sample supernatants were combined in cassettes of up to 4 compounds and analysed using standard LC-MS/MS conditions.
From a plot of the natural logarithm of the peak area ratio (i.e., the ratio of compound peak area:internal standard peak area) against time, the gradient of the line was determined. Subsequently, half-life and intrinsic clearance were calculated using the equations below: Eliminated Rate Constant (k)=(−Gradient).

[1] = target: T1, CB1 receptor (HEK293 CB1 β-arrestin cells) (Homo sapiens, UniProt P21554); assay: PathHunter β-Arrestin assay, enhancement of anandamide stimulation; assay type: cell-based; settings: maximum % increase in stimulation caused by anandamide; for Potency % Enhancement 100 nM: 100 nM test compound; for Potency % Enhancement 1000 nM: 1000 nM test compound; for Potency % Enhancement 300 nM: 300 nM test compound
T1 construct: host or cells: HEK293 CB1 β-arrestin cells (PathHunter)
Source text: PathHunter™ β-Arrestin Assays
β-Arrestins are multifunctional intracellular proteins that interact with a structurally diverse group of cell surface receptors including GPCRs, to regulate cellular functions (see, e.g., Violin and Lefkowitz, 2007).
PathHunter™ enzyme fragment complementation is the most important method to measure β-arrestin recruitment. PathHunter™ β-Arrestin assays developed by DiscoveRX are revolutionary high-throughput screening assays for monitoring GPCR activation following ligand stimulation, without an imaging instrument, fluorescent protein tag, or radioactivity.
Instead, the assays detect GPCR activation through binding of β-arrestin to the expressed GPCR of interest, and measure the interaction of the two proteins using enzyme fragment complementation (EFC). The EFC approach offers a range of benefits for screening; including signal amplification and robust performance.
The larger portion of β-gal, termed EA for enzyme acceptor, is fused to the C-terminus of β-arrestin. The smaller, complementing fragment of β-gal, the ProLink™ tag, is expressed as a fusion protein with the GPCR of interest at the C-terminus. Upon activation, the GPCR is bound by β-arrestin. The interaction of β-arrestin and the GPCR forces the interaction of ProLink and EA, thus allowing complementation of the two fragments of β-gal and the formation of a functional enzyme capable of hydrolyzing substrate and generating a […] signal.
Using the PathHunter™ CB1 kit from DiscoveRX, a cannabinoid CB1 receptor agonist is added and activates the receptor, EA, which is fused to the C-terminus of β-arrestin, and then interacts with the ProLink™ tag which is fused to the CB1 receptor. This will result in the […] signal that is recorded by a luminescence plate reader. The […] signal is directly related to the activation of the receptor, therefore a higher concentration of agonist will yield a larger […] signal. The cannabinoid agonist is added in increasing concentrations to obtain an agonist dose response curve. With pre-incubation of a potential allosteric modulator, either an enhancement of agonist signalling with an allosteric enhancer or a decrease in the maximal response of the agonist with an allosteric inhibitor is expected.
All raw data are obtained as luminescence (relative light units), and are normalised and presented as a percentage of the maximal response for the endogenous cannabinoid CB1 receptor agonist anandamide (N-arachidonoylethanolamine).
The PathHunter™ β-Arrestin assay (from DiscoveRX, Fremont, USA) was performed as follows. HEK293 CB1 β-arrestin cells were plated 48 hours before use and incubated at 37° C., 5% CO2 in a humidified incubator. Test compounds were dissolved in dimethylsulfoxide (DMSO) and diluted in optimized cell culture media (OCC, as supplied by DiscoveRX) media to the required concentrations. 5 μL of test compound or vehicle solution was added to each well and incubated for 60 minutes at 37° C., 5% CO2 in a humidified incubator. 5 μL of increasing concentrations of anandamide was added to each well followed by a 90 minute incubation at 37° C., 5% CO2 in a humidified incubator. 55 μL of detection reagent (as supplied by DiscoveRX) was then added, followed by a further 90 minute incubation at room temperature in the dark. Chemiluminescence, reported in relative light units (RLU—a dimensionless value, standardised as a % of maximum stimulation with anandamide), was measured on a standard luminescence plate reader.
Data were plotted as % of maximal stimulation (Emax) caused by agonist versus the logarithm of concentration of agonist, in the presence or absence of a fixed concentration of test compound (modulator) or vehicle. For example, stimulation in the presence of agonist alone will give a value for stimulation expressed in RLU, which can be expressed as a range from 0% (at lowest agonist concentration, e.g., 1 nM) to 100% (at the highest agonist concentration, e.g., 10 μM). […]

CB1 receptor [2] = target: T2, CB1 receptor (Mus musculus, UniProt P47746); parameters: from the CB1 receptor in mouse brain membranes; host or cells: mouse brain membranes; settings: mouse brain membranes; cited from earlier work
CB1 receptor [3] = target: T2, CB1 receptor; settings: equilibrium binding assay; cited from earlier work
CCI model = settings: antagonized by rimonabant; cited from earlier work
[4] = test system: C57BL/6J mice; FAAH knockout mice; settings: cited from earlier work

T2 sequence (P47746 whole entry): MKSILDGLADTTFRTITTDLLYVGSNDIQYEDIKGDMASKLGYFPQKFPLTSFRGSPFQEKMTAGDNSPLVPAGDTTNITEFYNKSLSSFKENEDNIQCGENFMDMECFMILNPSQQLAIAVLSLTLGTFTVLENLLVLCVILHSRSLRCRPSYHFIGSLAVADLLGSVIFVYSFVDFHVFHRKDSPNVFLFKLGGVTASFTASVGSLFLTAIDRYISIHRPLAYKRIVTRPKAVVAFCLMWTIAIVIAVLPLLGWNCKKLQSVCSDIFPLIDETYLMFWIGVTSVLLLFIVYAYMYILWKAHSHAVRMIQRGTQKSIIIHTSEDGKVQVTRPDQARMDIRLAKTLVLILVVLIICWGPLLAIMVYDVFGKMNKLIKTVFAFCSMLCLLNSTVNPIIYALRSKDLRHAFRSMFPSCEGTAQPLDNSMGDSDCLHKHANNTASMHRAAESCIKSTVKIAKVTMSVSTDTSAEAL
T1 sequence (P21554 whole entry): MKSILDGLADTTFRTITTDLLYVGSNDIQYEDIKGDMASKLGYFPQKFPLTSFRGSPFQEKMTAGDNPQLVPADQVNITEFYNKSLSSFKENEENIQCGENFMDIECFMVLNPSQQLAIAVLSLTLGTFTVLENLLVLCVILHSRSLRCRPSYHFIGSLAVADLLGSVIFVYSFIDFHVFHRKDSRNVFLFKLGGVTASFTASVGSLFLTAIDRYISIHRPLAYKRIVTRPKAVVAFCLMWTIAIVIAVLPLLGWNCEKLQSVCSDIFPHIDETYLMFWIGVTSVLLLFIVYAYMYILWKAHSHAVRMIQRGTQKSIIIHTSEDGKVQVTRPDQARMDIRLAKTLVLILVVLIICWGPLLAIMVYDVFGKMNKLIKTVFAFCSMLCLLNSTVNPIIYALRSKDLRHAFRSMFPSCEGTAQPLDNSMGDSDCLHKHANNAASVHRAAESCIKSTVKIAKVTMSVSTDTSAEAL

## Cc1ccc2c(C(CC(F)(F)F)c3cccs3)c(-c3ccccc3)[nH]c2c1 (stereo not drawn) [ABD1187, 6-Methyl-2-phenyl-3-(3,3,3-trifluoro-1-(thiophen-2-yl)propyl)-1H-indole]
In vitro; human
  microsomal CLint at 3 μM: 5 µL/min/mg

## Cc1ccc2c(C(C(=O)C(F)(F)F)c3ccccc3)c(-c3ccccc3)[nH]c2c1 (stereo not drawn) [ABD1146, 1,1,1-Trifluoro-3-(6-methyl-2-phenyl-1H-indol-3-yl)-3-phenylpropan-2-one]
[1]
  Potency % Enhancement 100 nM: 34.0%
  Potency % Enhancement 1000 nM: 81.0%

## N#CC(C#N)C(c1ccccc1)c1c(-c2ccccc2)[nH]c2ccccc12 (stereo not drawn) [ABD1100, 2-(Phenyl(2-phenyl-1H-indol-3-yl)methyl)malononitrile]
[1]
  Potency % Enhancement 300 nM: 0%
  Potency % Enhancement 1000 nM: 19.6%

## Cc1ccc2c(C(c3ccccc3)C(C#N)C#N)c(-c3ccccc3)[nH]c2c1 (stereo not drawn) [ABD1133, 2-((6-Methyl-2-phenyl-1H-indol-3-yl)(phenyl)methyl)malononitrile]
[1]
  Potency % Enhancement 300 nM: 68.7%
  Potency % Enhancement 1000 nM: 40.4%

## O=C(O)CC(c1ccccc1)c1c(-c2ccccc2)[nH]c2ccc(Cl)cc12 (stereo not drawn) [ABD1003]
[1]
  Potency % Enhancement 1000 nM: 0%

## NCC(c1ccccc1)c1c(-c2ccccc2)[nH]c2ccccc12 (stereo not drawn) [ABD1009a]
[1]
  Potency % Enhancement 1000 nM: 0%

## CS(=O)(=O)NCC(c1ccccc1)c1c(-c2ccccc2)[nH]c2ccccc12 (stereo not drawn) [ABD1009]
[1]
  Potency % Enhancement 1000 nM: 0%

## NC(=O)NCC(c1ccccc1)c1c(-c2ccccc2)[nH]c2ccccc12 (stereo not drawn) [ABD1011]
[1]
  Potency % Enhancement 1000 nM: 0%

## CCc1c(C(=O)NCCc2ccc(N3CCCCC3)cc2)[nH]c2ccc(Cl)cc12 [ORG27569]
CB1 receptor [2]
  dissociation of radiolabelled CB1 receptor agonist CP55940 from the CB1 receptor: slowing of the dissociation
CB1 receptor [3]
  binding of CP55940: increase
  binding of radiolabelled inverse agonist SR141716A: decrease

## Cc1ccc2c(C(CC#N)c3ccccc3)c(-c3ccccc3)[nH]c2c1 (stereo not drawn) [ABD1132, 3-(6-Methyl-2-phenyl-1H-indol-3-yl)-3-phenylpropanenitrile]
[1]
  Potency % Enhancement 300 nM: 21.6%
  Potency % Enhancement 1000 nM: 80.6%

## Cc1ccc2c(C(c3cccs3)C(C#N)C#N)c(-c3ccccc3)[nH]c2c1 (stereo not drawn) [ABD1155, 2-((6-Methyl-2-phenyl-1H-indol-3-yl)(thiophen-2-yl)methyl)malononitrile]
[1]
  Potency % Enhancement 1000 nM: 67.4%

## c1ccc(-c2[nH]c3ccccc3c2-c2nnnn2-c2ccccc2)cc1 [ABD1078]
[1]
  Potency % Enhancement 1000 nM: 0%

## O=C(O)CC(c1ccccc1)c1c(-c2ccccc2)[nH]c2ccccc12 (stereo not drawn) [ABD1101a]
[1]
  Potency % Enhancement 1000 nM: 0%

## CNC(=O)CC(c1ccccc1)c1c(-c2ccccc2)[nH]c2ccccc12 (stereo not drawn) [ABD1106]
[1]
  Potency % Enhancement 1000 nM: 0%

## O=C(C(c1ccccc1)c1c(-c2ccccc2)[nH]c2ccccc12)C(F)(F)F (stereo not drawn) [ABD1139, 1,1,1-Trifluoro-3-phenyl-3-(2-phenyl-1H-indol-3-yl)propan-2-one]
[1]
  Potency % Enhancement 300 nM: 0%
  Potency % Enhancement 1000 nM: 18.6%

## c1ccc(-c2[nH]c3ccccc3c2-n2nnnc2-c2ccccc2)cc1 [ABD1077]
[1]
  Potency % Enhancement 1000 nM: 0%

## N#CCC(c1ccccc1)c1c(-c2ccccc2)[nH]c2ccccc12 (stereo not drawn) [ABD1102, 3-Phenyl-3-(2-phenyl-1H-indol-3-yl)propanenitrile]
[1]
  Potency % Enhancement 300 nM: 0%
  Potency % Enhancement 1000 nM: 21.9%

## CCc1c(C(=O)NC2CCN(Cc3ccccc3)C2)[nH]c2ccc(Cl)cc12 (stereo not drawn) [ORG29647]
CB1 receptor [2]
  dissociation of radiolabelled CB1 receptor agonist CP55940 from the CB1 receptor: slowing of the dissociation
CB1 receptor [3]
  binding of CP55940: increase
  binding of radiolabelled inverse agonist SR141716A: decrease

## Cc1ccc2c(C(C[N+](=O)[O-])c3ccccc3)c(-c3ccccc3)[nH]c2c1 (stereo not drawn) [ABD999]
[1]
  Potency % Enhancement 1000 nM: 76.8%
In vitro; human
  half-life at 3 μM: 47.7 min
  microsomal CLint at 3 μM: 29.1 µL/min/mg

## NC(=O)CC(c1ccccc1)c1c(-c2ccccc2)[nH]c2ccccc12 (stereo not drawn) [ABD1105]
[1]
  Potency % Enhancement 1000 nM: 0%

## Cc1ccc2c(C(CC(F)(F)F)c3ccccc3)c(-c3ccccc3)[nH]c2c1 (stereo not drawn) [ABD1145, 6-Methyl-2-phenyl-3-(3,3,3-trifluoro-1-phenylpropyl)-1H-indole]
[1]
  Potency % Enhancement 100 nM: 45.5%
  Potency % Enhancement 1000 nM: 61.9%

## CS(=O)(=O)NC(c1ccccc1)c1c(-c2ccccc2)[nH]c2ccccc12 (stereo not drawn) [ABD1097]
[1]
  Potency % Enhancement 1000 nM: 0%

## NNC(=O)CC(c1ccccc1)c1c(-c2ccccc2)[nH]c2ccccc12 (stereo not drawn) [ABD1131]
[1]
  Potency % Enhancement 1000 nM: 0%

## Cc1ccc2c(C(C[N+](=O)[O-])c3cccs3)c(-c3ccccc3)[nH]c2c1 (stereo not drawn) [ZCZ011]
CCI model
  allodynia induced by mechanical (von Frey filaments) or cold (acetone) stimulation: significantly reversed
[1]
  Potency % Enhancement 100 nM: 56.8%
  Potency % Enhancement 1000 nM: 126.0%
In vitro; human
  half-life at 3 μM: 36.7 min
  microsomal CLint at 3 μM: 37.8 µL/min/mg
In vitro; rat
  half-life at 3 μM: 8.1 min
  microsomal CLint at 3 μM: 127 µL/min/mg
[4]; 40 mg/kg, C57BL/6J mice
  enhancement of the pharmacological effects of CP55,940: significantly enhanced
[4]; 40 mg/kg, fatty acid amide hydrolase (FAAH) knockout mice
  enhancement of the pharmacological effects of AEA: significantly enhanced
[4]; 40 mg/kg
  potency of AEA in the drug discrimination assay: significantly increasing
[4]; given alone
  catalepsy, thermal antinociception, hypothermia or changes in locomotor activity: did not produce

## CCc1c(C(=O)NCCc2ccc(N(C)C)cc2)[nH]c2ccc(F)cc12 [ORG27759]
CB1 receptor [2]
  dissociation of radiolabelled CB1 receptor agonist CP55940 from the CB1 receptor: slowing of the dissociation
CB1 receptor [3]
  binding of CP55940: increase
  binding of radiolabelled inverse agonist SR141716A: decrease

## c1ccc(-c2[nH]c3ccccc3c2C(Cn2ccnn2)c2ccccc2)cc1 (stereo not drawn) [ABD1117]
[1]
  Potency % Enhancement 1000 nM: 0%

## FC(F)(F)CC(c1ccccc1)c1c(-c2ccccc2)[nH]c2ccccc12 (stereo not drawn) [ABD1137, 2-Phenyl-3-(3,3,3-trifluoro-1-phenylpropyl)-1H-indole]
[1]
  Potency % Enhancement 300 nM: 0%
  Potency % Enhancement 1000 nM: 20.7%

## O=S(=O)(NC(c1ccccc1)c1c(-c2ccccc2)[nH]c2ccccc12)c1ccccc1 (stereo not drawn) [ABD1098]
[1]
  Potency % Enhancement 1000 nM: 0%

From US10377711B2, “Cannabinoid type 1 receptor modulators” (priority 2014, dated 2019)
